# Test results as given in US8420657B2 (Novartis AG, priority 2008, dated 2013).
# Where two headings read alike, the source gives them in different places.
# Tests used:
# GST-JAK2(808-1132) = molecular target: T1, GST-JAK2(808-1132) (Homo sapiens, UniProt O60674); assay: JAK2 kinase assay (Caliper mobility shift, LabChip 3000); assay type: biochemical
# T1 construct: GST-JAK2(808-1132); purchased Invitrogen (Carlsbad, USA) #4288
# Method in brief: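 Recombinant GST-JAK2(808-1132) kinase domain with FITC-labelled JAK3tide peptide substrate and ATP; 60 min at 30 °C, EDTA stop. Substrate/product ratio read by microfluidic mobility shift; compounds at 8 final concentrations, 10 to 0.003 μM.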
# PDGFRalpha = molecular target: T2, PDGFRalpha (Homo sapiens, UniProt P16234); assay: PDGFRalpha LanthaScreen TR-FRET kinase phosphorylation assay; assay type: biochemical; details: recombinant kinase domain, read-out: PDGFRa/IC50
# T2 construct: using the recombinant domains of cMet, cKit, ALK and PDGFRalpha kinases
# Method: (§1) The compounds are assayed in an antibody based kinase phosphorylation assay using the recombinant domains of cMet, cKit, ALK and PDGFRalpha kinases and a generic phospho-tyrosine peptide substrate. LanthaScreen™ is the detection of Time-Resolved Fluorescence Resonance Energy Transfer (TR-FRET) using lanthanide chelates to measure interactions between various binding partners. In a TR-FRET kinase assay, a long-lifetime lanthanide donor species is conjugated to an antibody that specifically binds to a phosphorylated product of a kinase reaction that is labeled with a suitable acceptor fluorophore. This antibody-mediated interaction brings the lanthanide donor and the acceptor into proximity such that resonance energy transfer can take place, resulting in a detectible increase in FRET. The LanthaScreen is run at ambient temperature and terminated by the addition of stop solution, followed by Tb-labeled P-20 antibody. After incubating in the dark, the plates are transferred to a fluorescence reader for counting. The effect of compound on the enzymatic activity is in all assays obtained from the linear progress curves and determined from one reading (end point measurement).
# ALK = molecular target: T3, ALK (Homo sapiens, UniProt Q9UM73); assay: ALK LanthaScreen TR-FRET kinase phosphorylation assay; assay type: biochemical; details: recombinant kinase domain
# T3 construct: using the recombinant domains of cMet, cKit, ALK and PDGFRalpha kinases
# Method: as §1
# cKit = molecular target: T4, cKit (Homo sapiens, UniProt P10721); assay: cKit LanthaScreen TR-FRET kinase phosphorylation assay; assay type: biochemical; details: recombinant kinase domain
# T4 construct: using the recombinant domains of cMet, cKit, ALK and PDGFRalpha kinases
# Method: as §1
# cMet = molecular target: T5, cMet (Homo sapiens, UniProt P08581); assay: cMet LanthaScreen TR-FRET kinase phosphorylation assay; assay type: biochemical; details: recombinant kinase domain
# T5 construct: using the recombinant domains of cMet, cKit, ALK and PDGFRalpha kinases
# Method: as §1
# [1] = tested on: JAK2-dependent nuclear translocation of STAT5-GFP in U-2 OS osteosarcoma cells; assay: STAT5 nuclear translocation assay (Cellomics), rhEpo stimulated U-2 OS STAT5-GFP cells; assay type: cell-based; details: Homo sapiens, U2OS; STAT5 translocation pathway
# Method in brief: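 U-2 OS cells stably expressing STAT5a-GFP and EpoR pre-treated with compound (final 10 μM to 0.003 μM, 0.1% DMSO) for 30 min at 37° C., then stimulated 1 h with 5 U/ml rhEpo. Nuclear-cytoplasmic GFP differential quantified by automated imaging (≥1000 cells/well, Hoechst nuclear mask). IC50 from % translocation normalized to untreated and DMSO-stimulated controls.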
# [2] = tested on: JAK1/JAK2-dependent nuclear translocation of STAT1-GFP in HT1080 fibrosarcoma cells; assay: STAT1 nuclear translocation assay (Cellomics), IFN-γ stimulated HT1080 STAT1-GFP cells; assay type: cell-based; details: Homo sapiens, HT-1080, STAT1 translocation pathway
# Method in brief: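 HT1080 cells stably expressing STAT1-GFP, pre-treated 30 min with compound (10 μM–0.003 μM, 0.1% DMSO), then stimulated 2 h with 100 ng/ml IFN-γ, fixed and Hoechst-stained. Nuclear-cytoplasmic GFP differential imaged over ≥1000 cells/well, normalised to unstimulated and DMSO-stimulated wells for IC50.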
# T2 sequence (P16234 593-954 limits assumed, species assumed): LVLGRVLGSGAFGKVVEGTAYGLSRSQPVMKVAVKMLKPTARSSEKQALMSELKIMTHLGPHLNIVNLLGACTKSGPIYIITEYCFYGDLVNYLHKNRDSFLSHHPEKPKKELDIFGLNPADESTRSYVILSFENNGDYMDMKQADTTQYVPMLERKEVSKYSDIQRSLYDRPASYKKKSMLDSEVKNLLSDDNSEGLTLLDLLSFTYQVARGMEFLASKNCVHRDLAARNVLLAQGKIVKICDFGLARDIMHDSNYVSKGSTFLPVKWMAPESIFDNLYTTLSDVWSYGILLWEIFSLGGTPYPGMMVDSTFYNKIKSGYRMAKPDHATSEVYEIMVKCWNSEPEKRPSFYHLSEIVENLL
# T3 sequence (Q9UM73 1116-1392 limits assumed, species assumed): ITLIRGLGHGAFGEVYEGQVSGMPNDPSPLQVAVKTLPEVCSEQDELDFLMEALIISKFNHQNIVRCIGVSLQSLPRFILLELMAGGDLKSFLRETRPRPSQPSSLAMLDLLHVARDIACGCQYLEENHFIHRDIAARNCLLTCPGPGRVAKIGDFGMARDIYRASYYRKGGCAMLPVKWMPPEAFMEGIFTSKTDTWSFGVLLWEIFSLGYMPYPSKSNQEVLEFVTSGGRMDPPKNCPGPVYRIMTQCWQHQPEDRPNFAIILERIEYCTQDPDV
# T1 sequence (O60674 808-1132): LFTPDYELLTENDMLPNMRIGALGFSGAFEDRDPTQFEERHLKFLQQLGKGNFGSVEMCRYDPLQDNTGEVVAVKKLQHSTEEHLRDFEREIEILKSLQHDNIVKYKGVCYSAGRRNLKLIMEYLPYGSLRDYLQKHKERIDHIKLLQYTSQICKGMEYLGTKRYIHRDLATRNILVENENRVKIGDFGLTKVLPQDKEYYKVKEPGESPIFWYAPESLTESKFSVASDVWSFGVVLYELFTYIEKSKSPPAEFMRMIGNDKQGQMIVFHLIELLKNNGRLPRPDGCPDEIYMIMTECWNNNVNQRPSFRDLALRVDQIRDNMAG
# T4 sequence (P10721 589-937 limits assumed): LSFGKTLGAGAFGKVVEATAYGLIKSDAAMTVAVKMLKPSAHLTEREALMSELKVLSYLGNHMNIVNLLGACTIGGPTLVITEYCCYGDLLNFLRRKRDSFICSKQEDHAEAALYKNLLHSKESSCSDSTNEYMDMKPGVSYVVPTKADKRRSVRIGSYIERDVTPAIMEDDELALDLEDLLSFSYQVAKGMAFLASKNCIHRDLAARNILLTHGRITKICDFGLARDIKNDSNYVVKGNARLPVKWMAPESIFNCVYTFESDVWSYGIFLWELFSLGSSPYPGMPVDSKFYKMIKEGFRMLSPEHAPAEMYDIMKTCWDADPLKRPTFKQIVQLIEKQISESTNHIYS
# T5 sequence (P08581 1078-1345 limits assumed): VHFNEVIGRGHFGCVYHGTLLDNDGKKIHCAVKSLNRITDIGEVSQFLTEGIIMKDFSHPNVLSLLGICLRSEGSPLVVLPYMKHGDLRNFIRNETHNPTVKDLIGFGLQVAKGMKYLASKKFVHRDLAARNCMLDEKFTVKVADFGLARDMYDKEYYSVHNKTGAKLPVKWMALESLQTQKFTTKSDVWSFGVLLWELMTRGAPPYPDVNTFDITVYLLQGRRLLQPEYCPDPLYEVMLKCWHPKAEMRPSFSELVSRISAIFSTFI
Compound,IC50 (GST-JAK2(808-1132)) [nM],IC50 (GST-JAK2(808-1132); Table 3) [nM],IC50 (PDGFRalpha) [nM],IC50 (ALK) [µM],IC50 (cKit) [nM],IC50 (cMet) [µM],IC50 [1] [nM],IC50 [2] [nM]
"OCCN1CCOC[C@@H]1c1ccc(Nc2ncc3ccn(-c4cc(F)c(CN5CCOCC5)c(F)c4)c3n2)cc1 [Example 521, 2-((S)-3-{4-[7-(3,5-difluoro-4-morpholin-4-ylmethyl-phenyl)-7H-pyrrolo[2,3-d]pyrimidin-2-ylamino]-phenyl}-morpholin-4-yl)-ethanol]",≤ 3,< 3,2800,> 10,2900,3.5,,
"C[C@@H]1CN(Cc2c(F)cc(-n3ccc4cnc(Nc5ccc(N6CCN(C)CC6)nc5)nc43)cc2F)C[C@H](C)O1 [Example 447, {7-[4-(cis-2,6-dimethyl-morpholin-4-ylmethyl)-3,5-difluoro-phenyl]-7H-pyrrolo[2,3-d]pyrimidin-2-yl}-[6-(4-methyl-piperazin-1-yl)-pyridin-3-yl]-amine]",9.6,,,,,,11.8,105
"N#Cc1ccc(Nc2ncc3ccn(-c4ccc(C(=O)N5CCOCC5)cc4)c3n2)cn1 [Example 235, 5-{7-[4-(Morpholine-4-carbonyl)-phenyl]-7H-pyrrolo[2,3-d]pyrimidin-2-ylamino}-pyridine-2-carbonitrile]",56,56,> 10000,> 10,> 10000,> 10,,
"CN1CCN(c2ccc(Nc3ncc4ccn(-c5ccc(C#N)cc5)c4n3)cn2)CC1 [Example 278, 4-{2-[6-(4-Methyl-piperazin-1-yl)-pyridin-3-ylamino]-pyrrolo[2,3-d]pyrimidin-7-yl}-benzonitrile]",11,11,2650,> 10,1350,1.4,,
